Read-outs that look alike come from different tables or passages of the source. Where no end group is shown, it is not given here.
Experiments:
HLA-DRβ1*04:01 (DR4) [1] = biological target: T1, HLA-DRβ1*04:01 (DR4) (Homo sapiens, UniProt P01903+P01911, A100K/A169T/F76Y/I96L/K127E/L162R/M171V/N62H/P40V/Q125Y/R42H/S133A/S149N/S66Y/V115G/V209L/W38E); experiment: biochemical; assay type: binding
HLA-DRβ1*04:01 (DR4) [2] = biological target: T1, HLA-DRβ1*04:01 (DR4); experiment: biochemical; assay type: binding; remark: listed apart in the source
HLA-DR4 = HLA-DR4 (Homo sapiens, UniProt P01903+P01911, A100K/A169T/F76Y/I96L/K127E/L162R/M171V/N62H/P40V/Q125Y/R42H/S133A/S149N/S66Y/V115G/V209L/W38E); conditions: binding to HLA-DR4, previously reported; read-out: IC50, competition binding assay; cited from earlier work
[3] = IC50, competition binding assay

| Molecule | IC50 (HLA-DRβ1*04:01 (DR4) [1]) | further results |
| --- | --- | --- |
| CC(C)[C@H](NC(=O)[C@H](CC(N)=O)NC(=O)[C@@H]1CCCN1C(=O)[C@H](CC(N)=O)NC(=O)[C@H](C)NC(=O)[C@H](CC(N)=O)NC(=O)[C@@H]1CCCN1C(=O)[C@H](CC(=O)O)NC(=O)[C@@H](NC(=O)[C@H](CC(N)=O)NC(=O)[C@@H]1CCCN1C(=O)[C@H](CC(N)=O)NC(=O)[C@H](C)NC(=O)[C@H](CC(N)=O)NC(=O)[C@@H]1CCCN1C(=O)[C@@H](N)CC(=O)O)C(C)C)C(=O)O [T1, reference compound] |  | IC50 (HLA-DRβ1*04:01 (DR4) [1]; IC50, binding to DRβ1*04:01): ~18 µM |
| Ac-ANSLSTEWSPCSVT-NH2 [Q332A] | 1.19 µM |  |
| Ac-LSTEWSPCS-NH2 [QN-335-343] | 75.8 µM |  |
| Ac-QASLSTEWSPCSVT-NH2 [N333A] | 2.65 µM |  |
| Ac-QNALSTEWSPCSVT-NH2 [S334A] | 1.14 µM |  |
| Ac-QNSASTEWSPCSVT-NH2 [L335A] | 68.4 µM |  |
| Ac-QNSLATEWSPCSVT-NH2 [S336A] | 0.91 µM |  |
| Ac-QNSLSAEWSPCSVT-NH2 [T337A] | 1.3 µM |  |
| Ac-QNSLSTAWSPCSVT-NH2 [E338A] | 3.4 µM |  |
| Ac-QNSLSTEASPCSVT-NH2 [W339A] | 1.42 µM |  |
| Ac-QNSLSTEWAPCSVT-NH2 [S340A] | 24.6 µM |  |
| Ac-QNSLSTEWSACSVT-NH2 [P341A] | 7.75 µM |  |
| Ac-QNSLSTEWSPASVT-NH2 [C342A] | 0.73 µM |  |
| Ac-QNSLSTEWSPCAVT-NH2 [S343A] | 0.7 µM |  |
| Ac-QNSLSTEWSPCS-NH2 [QN-332-343] | 5.58 µM |  |
| Ac-QNSLSTEWSPCSAT-NH2 [V344A] | 0.44 µM |  |
| Ac-QNSLSTEWSPCSVA-NH2 [T345A] | 0.71 µM |  |
| Ac-SLSTEWSPCSVT-NH2 [QN-334-345] | 2.82 µM |  |
| Ac-STEWSPCS-NH2 [QN-336-343] | 6740 µM |  |
| QNSLSTEWSPCSVT [QNT-5] |  | Kd (HLA-DRβ1*04:01 (DR4) [2]; apparent equilibrium binding affinity, […], DR-ELISA, read-out: Kd (nM) DM+): 714.1 ± 3.9 nM; Kd (HLA-DRβ1*04:01 (DR4) [2]; apparent equilibrium binding affinity, […], DR-ELISA, read-out: Kd (nM) DM-): 504 ± 86.2 nM; IC50 (HLA-DRβ1*04:01 (DR4) [1]; IC50 (quoted from Table 2)): ~0.025 µM; IC50 (HLA-DRβ1*04:01 (DR4) [1]; [3]): ~1.7 µM; IC50 (HLA-DRβ1*04:01 (DR4) [1]; IC50 range values (95% C.I.)): 1.53 to 1.85 µM |
| QNSYSTEWSPCSVT [QNT-Y] |  | Kd (HLA-DRβ1*04:01 (DR4) [2]; Kd (nM) DM+): 35.7 ± 20.5 nM; Kd (HLA-DRβ1*04:01 (DR4) [2]; Kd (nM) DM-): 25.5 ± 10.7 nM; IC50 (HLA-DRβ1*04:01 (DR4) [1]; IC50 (quoted from Table 2)): ~0.5 µM; IC50 (HLA-DRβ1*04:01 (DR4) [1]; [3]): ~0.13 µM; IC50 (HLA-DRβ1*04:01 (DR4) [1]; IC50 range values (95% C.I.)): 0.124 to 0.14 µM |
| SLSTEWSPCSV [T*-5] |  | IC50 (HLA-DR4): 0.9 µM |

Source: paper PMC4077652, “An Unstable Th Epitope of P. falciparum Fosters Central Memory T Cells and Anti-CS Antibody Responses” (PLoS ONE, 2014)
